Reference: patent publication US10118930B2, “Piperidinylpyrazolopyrimidinones and their use” (BAYER PHARMA AKTIENGESELLSCHAFT, priority 2015, dated 2018)
Structures can show the parent of a compound that is named as a salt.

Tested on: clot lysis (fibrinolysis) in diluted human citrated plasma, tPA-induced
Experiment: Plasma-based clot lysis assay (5%)
Type: biochemical
Conditions: human citrated platelet-poor plasma 5%, fibrinogen 3 μM, CaCl2 10 mM, tPA 0.2 nM, 37° C., OD at 405 nm
Protocol: B-2. Plasma-based Clot Lysis Assay (5%)
The clot-lysis test system configures the kinetics of clot formation and degradation in vitro and allows quantifying modulation of the process by selected test compounds.
The test compounds were dissolved in 1% acetic acid and further complemented with an equal volume of DMSO. The resulting stock solutions were serially diluted in 0.5% acetic acid/50% DMSO. 1 μL aliquots of these solutions were placed into 384 well microplates (Greiner, black, transparent bottom), followed by 30 μL of diluted human citrated plasma (platelet-poor, final concentration: 5%; supplemented with fibrinogen, final concentration: 3 μM; dilution buffer: 20 mM HEPES, 150 mM NaCl, 0.01% Brij (pH 7)). The reactions were started by addition of 20 μL of CaCl2 (final concentration: 10 mM), and tPA (tissue plasminogen activator, final concentration: 0.2 nM) in dilution buffer, followed by an additional volume of 20 μL dilution buffer for improved mixing. The reactions were incubated at 37° C. […] IC50 values were determined by comparing the resulting time courses with the time course of a blank control reaction.

First: CCc1cccc(NC(=O)c2cnn3c(C4CCNCC4)cc(=O)[nH]c23)c1 [Example 80, N-(3-ethylphenyl)-5-oxo-7-(piperidin-4-yl)-4,5-dihydropyrazolo[1,5-a]pyrimidine-3-carboxamide]
Second: COC(=O)c1cnn2c(C3CCNCC3)cc(=O)[nH]c12 [Example 357, Methyl 5-oxo-7-(piperidin-4-yl)-4,5-dihydropyrazolo[1,5-a]pyrimidine-3-carboxylate hydrochloride]
The IC50 of the first is 2.4-fold higher: 0.033 µM for the first, 0.014 µM for the second.

Going from `Cc1nn2c(C3CCNCC3)cc(=O)[nH]c2c1C(=O)N1CCNC(=O)CC1` [Example 430, 2-methyl-3-[(5-oxo-1,4-diazepan-1-yl)carbonyl]-7-(piperidin-4-yl) pyrazolo[1,5-a] pyrimidin-5(4H)-one hydrochloride] to `COCC1CCCN(C(=O)c2c(C)nn3c(C4CCNCC4)cc(=O)[nH]c23)C1` (centres unmarked) [Example 402, 3-{[3-(methoxymethyl)piperidin-1-yl]carbonyl}-2-methyl-7-(piperidin-4-yl) pyrazolo[1,5-a] pyrimidin-5(4H)-one hydrochloride], the IC50 falls from 0.12 µM to 0.04 µM (3-fold). The second is the more potent here.

Compared with `CC1CCCN(C(=O)c2cnn3c(C4CCNCC4)cc(=O)[nH]c23)C1C` (centres unmarked) [Example 104, 3-[(2,3-dimethylpiperidin-1-yl)carbonyl]-7-(piperidin-4-yl)pyrazolo[1,5-a]pyrimidin-5(4H)-one hydrochloride], `CC1(C)CCN(Cc2cnn3c(C4CCNCC4)cc(=O)[nH]c23)C1` [Example 324, 3-[(3,3-dimethylpyrrolidin-1-yl)methyl]-7-(piperidin-4-yl)pyrazolo[1,5-a]pyrimidin-5(4H)-one hydrochloride] is 4.8-fold higher in IC50: 0.031 µM for the first, 0.15 µM for the second. The first is the more potent here.

First: CC(C)(c1ccccc1)c1noc(-c2cnn3c(C4CCNCC4)cc(=O)[nH]c23)n1 [Example 223, 3-[3-(2-phenylpropan-2-yl)-1,2,4-oxadiazol-5-yl]-7-(piperidin-4-yl)pyrazolo[1,5-a]pyrimidin-5(4H)-one hydrochloride]
Second: COc1ccccc1-c1noc(-c2cnn3c(C4CCNCC4)cc(=O)[nH]c23)n1 [Example 160, 3-[3-(2-methoxyphenyl)-1,2,4-oxadiazol-5-yl]-7-(piperidin-4-yl)pyrazolo[1,5-a]pyrimidin-5(4H)-one hydrochloride]
The IC50 of the first is 2.4-fold lower: 0.031 µM for the first, 0.073 µM for the second. The first is the more potent here.

`O=c1cc(C2CCNCC2)n2ncc(-c3noc(-c4ccc(Cl)cc4)n3)c2[nH]1` [Example 233, 3-[5-(4-chlorophenyl)-1,2,4-oxadiazol-3-yl]-7-(piperidin-4-yl)pyrazolo[1,5-a]pyrimidin-5(4H)-one hydrochloride] and `O=c1cc(C2CCNCC2)n2ncc(-c3nnc(-c4ccc(Cl)cc4)o3)c2[nH]1` [Example 181, 3-[5-(4-chlorophenyl)-1,3,4-oxadiazol-2-yl]-7-(piperidin-4-yl)pyrazolo[1,5-a]pyrimidin-5(4H)-one hydrochloride] are within 1.5-fold of each other in IC50: 0.036 µM for the first, 0.028 µM for the second.

Going from `CC(C)(c1nnc(-c2cnn3c(C4CCNCC4)cc(=O)[nH]c23)o1)n1cncn1` [Example 275, 7-(piperidin-4-yl)-3-{5-[2-(1H-1,2,4-triazol-1-yl)propan-2-yl]-1,3,4-oxadiazol-2-yl}pyrazolo[1,5-a]pyrimidin-5(4H)-one hydrochloride] to `O=c1cc(C2CCNCC2)n2ncc(-c3nnc(-c4ccco4)o3)c2[nH]1` [Example 178, 3-[5-(2-furyl)-1,3,4-oxadiazol-2-yl]-7-(piperidin-4-yl)pyrazolo[1,5-a]pyrimidin-5 (4H)-one hydrochloride], the IC50 rises from 0.02 µM to 0.034 µM (1.7-fold).

First: C[C@H]1C[C@H](c2cc(=O)[nH]c3c(C(N)=O)cnn23)CCN1 [Example 51, (−)-trans-7-(2-Methylpiperidin-4-yl)-5-oxo-4,5-dihydropyrazolo[1,5-a]pyrimidine-3-carboxamide trifluoroacetate]
Second: CN(Cc1ccccn1)C(=O)c1cnn2c(C3CCNCC3)cc(=O)[nH]c12 [Example 361, N-methyl-5-oxo-7-(piperidin-4-yl)-N-(pyridin-2-ylmethyl)-4,5-dihydropyrazolo[1,5-a]pyrimidine-3-carboxamide hydrochloride]
The IC50 of the first is 2-fold lower: 0.016 µM for the first, 0.032 µM for the second.

`COc1cccc(-c2noc(-c3cnn4c(C5CCNCC5)cc(=O)[nH]c34)n2)c1` [Example 125, 3-[3-(3-Methoxyphenyl)-1,2,4-oxadiazol-5-yl]-7-(piperidin-4-yl)pyrazolo[1,5-a]pyrimidin-5 (4H)-one hydrochloride] and `Cc1cccc(-c2noc(-c3cnn4c(C5CCNCC5)cc(=O)[nH]c34)n2)c1` [Example 120, 3-[3-(3-Methylphenyl)-1,2,4-oxadiazol-5-yl]-7-(piperidin-4-yl)pyrazolo[1,5-a]pyrimidin-5 (4H)-one hydrochloride] are within 1.5-fold of each other in IC50: 0.04 µM for the first, 0.035 µM for the second.

Going from `Cc1nn2c(C3CCNCC3)cc(=O)[nH]c2c1-c1nc(Cc2ccc(O)cc2)no1` [Example 446, 3-[3-(4-hydroxybenzyl)-1,2,4-oxadiazol-5-yl]-2-methyl-7-(piperidin-4-yl)pyrazolo[1,5-a]pyrimidin-5(4H)-one hydrochloride] to `Cc1noc(-c2c(C)nn3c(C4CCNCC4)cc(=O)[nH]c23)n1` [Example 339, 2-methyl-3-(3-methyl-1,2,4-oxadiazol-5-yl)-7-(piperidin-4-yl)pyrazolo[1,5-a]pyrimidin-5(4H)-one hydrochloride], the IC50 rises from 0.01 µM to 0.028 µM (2.8-fold). The first is the more potent here.

`CCc1nc(-c2cnn3c(C4CCNCC4)cc(=O)[nH]c23)no1` [Example 262, 3-(5-ethyl-1,2,4-oxadiazol-3-yl)-7-(piperidin-4-yl)pyrazolo[1,5-a]pyrimidin-5(4H)-one hydrochloride] and `CC(C)c1nc(-c2cnn3c(C4CCNCC4)cc(=O)[nH]c23)no1` [Example 256, 7-(piperidin-4-yl)-3-[5-(propan-2-yl)-1,2,4-oxadiazol-3-yl]pyrazolo[1,5-a]pyrimidin-5(4H)-one hydrochloride] are within 1.5-fold of each other in IC50: 0.023 µM for the first, 0.028 µM for the second.

`O=c1cc(C2CCNCC2)n2ncc(-c3nc(-c4cc(F)c(F)cc4F)no3)c2[nH]1` [Example 190, 7-(piperidin-4-yl)-3-[3-(2,4,5-trifluorophenyl)-1,2,4-oxadiazol-5-yl]pyrazolo[1,5-a]pyrimidin-5 (4H)-one hydrochloride] and `O=c1cc(C2CCNCC2)n2ncc(-c3nc(-c4cc(Cl)cc(Cl)c4)no3)c2[nH]1` [Example 151, 3-[3-(3,5-Dichlorophenyl)-1,2,4-oxadiazol-5-yl]-7-(piperidin-4-yl)pyrazolo[1,5-a]pyrimidin-5 (4H)-one hydrochloride] are within 1.5-fold of each other in IC50: 0.034 µM for the first, 0.044 µM for the second.

First: Cc1nn2c(C3CCNCC3)cc(=O)[nH]c2c1-c1nnc(-c2ccccc2F)o1 [Example 445, 3-[5-(2-fluorophenyl)-1,3,4-oxadiazol-2-yl]-2-methyl-7-(piperidin-4-yl)pyrazolo[1,5-a]pyrimidin-5(4H)-one hydrochloride]
Second: Cc1ccc(-c2nnc(-c3cnn4c(C5CCNCC5)cc(=O)[nH]c34)o2)cc1 [Example 170, 3-[5-(4-methylphenyl)-1,3,4-oxadiazol-2-yl]-7-(piperidin-4-yl)pyrazolo[1,5-a]pyrimidin-5 (4H)-one hydrochloride]
The IC50 of the first is 1.6-fold higher: 0.056 µM for the first, 0.034 µM for the second. The second is the more potent here.

Compared with `CC(C)(C)C[C@@H]1C[C@H](c2cc(=O)[nH]c3c(-c4nc(-c5ccccc5F)no4)cnn23)CCN1` [Example 349, 7-[(2S,4R)-2-(2,2-dimethylpropyl)piperidin-4-yl]-3-[3-(2-fluorophenyl)-1,2,4-oxadiazol-5-yl]pyrazolo[1,5-a]pyrimidin-5(4H)-one hydrochloride], `O=c1cc(C2CCNCC2)n2ncc(-c3nc(-c4cccc(Cl)n4)no3)c2[nH]1` [Example 133, 3-[3-(6-Chloropyridin-2-yl)-1,2,4-oxadiazol-5-yl]-7-(piperidin-4-yl)pyrazolo[1,5-a]pyrimidin-5(4H)-one hydrochloride] is 1.9-fold higher in IC50: 0.021 µM for the first, 0.039 µM for the second.

`CCNC(=O)c1c(C)nn2c(C3CCNCC3)cc(=O)[nH]c12` [Example 317, N-ethyl-2-methyl-5-oxo-7-(piperidin-4-yl)-4,5-dihydropyrazolo[1,5-a]pyrimidine-3-carboxamide hydrochloride] and `CCCOC(=O)c1c(C)nn2c(C3CCNCC3)cc(=O)[nH]c12` [Example 365, Propyl 2-methyl-5-oxo-7-(piperidin-4-yl)-4,5-dihydropyrazolo[1,5-a]pyrimidine-3-carboxylate hydrochloride] are within 1.5-fold of each other in IC50: 0.029 µM for the first, 0.038 µM for the second.

`Cc1ccccc1N(C)C(=O)c1c(C)nn2c(C3CCNCC3)cc(=O)[nH]c12` [Example 431, N,2-dimethyl-N-(2-methyl-phenyl)-5-oxo-7-(piperidin-4-yl)-4,5-dihydro-pyrazolo[1,5-a] pyrimidine-3-carboxamide hydrochloride] and `O=C(c1c(-c2ccccc2)nn2c(C3CCNCC3)cc(=O)[nH]c12)N1CCOCC1` [Example 43, 3-(Morpholin-4-ylcarbonyl)-2-phenyl-7-(piperidin-4-yl)pyrazolo[1,5-a]pyrimidin-5(4H)-one trifluoroacetate] are within 1.5-fold of each other in IC50: 0.028 µM for the first, 0.027 µM for the second.

Compared with `O=c1cc(C2CCNCC2)n2ncc(-c3nc(CCCC(F)(F)F)no3)c2[nH]1` [Example 192, 7-(piperidin-4-yl)-3-[3-(4,4,4-trifluorobutyl)-1,2,4-oxadiazol-5-yl]pyrazolo[1,5-a]pyrimidin-5(4H)-one hydrochloride], `NCc1noc(-c2cnn3c(C4CCNCC4)cc(=O)[nH]c23)n1` [Example 212, 3-[3-(aminomethyl)-1,2,4-oxadiazol-5-yl]-7-(piperidin-4-yl)pyrazolo[1,5-a]pyrimidin-5 (4H)-one hydrochloride] is 1.7-fold higher in IC50: 0.034 µM for the first, 0.058 µM for the second.
